Reference: ChEMBL document CHEMBL1135933, “Synthesis of nitroindole derivatives with high affinity and selectivity for melatoninergic binding sites MT(3)” (J Med Chem, 2002)
pKi: −log10 of the molar value. Blank lines part the entries; values can stand above or below the compound they belong to.

How the values were obtained:
[1] = target: T1, Melatonin receptor type 1B (Homo sapiens, UniProt P49286); test: Inhibition of 2-[125I]iodomelatonin binding to human Melatonin receptor type 1B expressed in HEK293 cells; format: cell-based
T1 sequence (P49286 whole entry): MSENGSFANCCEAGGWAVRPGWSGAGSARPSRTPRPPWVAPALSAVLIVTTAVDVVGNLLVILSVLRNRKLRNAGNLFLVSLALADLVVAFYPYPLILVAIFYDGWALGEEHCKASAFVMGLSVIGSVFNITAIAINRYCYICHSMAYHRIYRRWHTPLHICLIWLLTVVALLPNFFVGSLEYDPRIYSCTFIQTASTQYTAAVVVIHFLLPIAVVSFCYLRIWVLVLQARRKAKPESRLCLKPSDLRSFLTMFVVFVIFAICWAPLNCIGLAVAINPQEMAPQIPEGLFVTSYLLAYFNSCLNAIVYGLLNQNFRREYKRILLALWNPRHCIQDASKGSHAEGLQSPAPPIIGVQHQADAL

[2] = target: Melatonin receptor type 1A (Homo sapiens, UniProt P48039); test: Inhibition of 2-[125I]iodomelatonin binding to human Melatonin receptor type 1A expressed in HEK293 cells; format: cell-based
Homo sapiens [3] = organism: Homo sapiens; test: Selectivity ratio of binding affinity at MT1 receptor relative to MT3 receptor
Homo sapiens [4] = organism: Homo sapiens; test: Selectivity ratio of binding affinity at MT2 receptor relative to MT3 receptor

Sequence of Melatonin receptor type 1A (P48039 whole entry): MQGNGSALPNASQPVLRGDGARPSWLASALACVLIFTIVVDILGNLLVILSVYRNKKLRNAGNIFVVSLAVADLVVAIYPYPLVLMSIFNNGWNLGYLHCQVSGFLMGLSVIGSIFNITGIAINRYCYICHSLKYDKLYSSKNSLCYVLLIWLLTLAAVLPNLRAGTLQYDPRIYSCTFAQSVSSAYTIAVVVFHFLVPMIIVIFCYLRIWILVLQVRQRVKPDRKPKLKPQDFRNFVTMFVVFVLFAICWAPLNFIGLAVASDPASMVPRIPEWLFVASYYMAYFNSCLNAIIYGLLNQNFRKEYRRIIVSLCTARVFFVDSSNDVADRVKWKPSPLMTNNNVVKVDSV

pKi [1]: 6.09 | pKi [2]: 5.97 | Selectivity (Homo sapiens [3]): 964 | Selectivity (Homo sapiens [4]): 745
SMILES: COc1ccc2[nH]cc(CCNC(C)=O)c2c1[N+](=O)[O-]

pKi [1]: 8.51 | pKi [2]: 8.59 | Selectivity (Homo sapiens [3]): 0.929 | Selectivity (Homo sapiens [4]): 1.1
SMILES: COc1ccc2c(c1)c(CCNC(C)=O)cn2C

pKi [1]: 7.41 | pKi [2]: 5.73
SMILES: COc1ccc2c(c(CCNC(C)=O)c(I)n2C)c1[N+](=O)[O-]

pKi [1]: 6.71 | pKi [2]: 5.07 | Selectivity (Homo sapiens [3]): 27600 | Selectivity (Homo sapiens [4]): 625
SMILES: COc1ccc2c(c(CCNC(C)=O)cn2C)c1[N+](=O)[O-]

The remaining lines, values behind:

SMILES: COc1cc([N+](=O)[O-])c2[nH]cc(CCNC(C)=O)c2c1
pKi [1]: 7.54 | pKi [2]: 7.31

SMILES: COc1cc2c(CCNC(C)=O)c(I)[nH]c2cc1[N+](=O)[O-]
pKi [2]: 9.52

SMILES: COc1cc2c(CCNC(C)=O)c[nH]c2cc1[N+](=O)[O-]
pKi [1]: 8.28 | pKi [2]: 7.84

SMILES: COc1ccc2c(c1)c(CCNC(C)=O)c(I)n2C
pKi [1]: 10.33 | pKi [2]: 10.10

SMILES: COc1cc2c(CCNC(C)=O)c(I)n(C)c2cc1[N+](=O)[O-]
pKi [1]: 9.11 | pKi [2]: 8.96

SMILES: COc1ccc2[nH]c(I)c(CCNC(C)=O)c2c1[N+](=O)[O-]
pKi [1]: 7.63 | pKi [2]: 7.72
